Values after ≈ are worked out from the molar mass of the structure shown. Read-outs that look alike come from different tables or passages of the source.
Key:
[1] = Resazurin cytotoxicity assay, HepG2; assay type: cell-based, Human; settings: human, 24 h, highest concentration 100 μM, n = 3, read-out: CC50 Hep G2
Summary of the method: (§1)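 Cells pre-cultured 24 h in DMEM/10% FBS at 37 °C, then exposed 24 h to compound dilution series (top 100 μM). Viability by 5 μM resazurin, 2 h, fluorescence 560/590 nm; 1% Triton X-100 as lysis control; CC50 from curve fitting.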

[2] = Resazurin cytotoxicity assay, HEK293; assay type: cell-based, Human; settings: human, 24 h, highest concentration 100 μM, n = 3, read-out: CC50 HEK 293
Summary of the method: as §1

G. lamblia WB (MtzS) = assay: ATP-bioluminescence growth/survival EC50 assay, G. lamblia WB; settings: for EC50: Giardia duodenalis; for S.I (CC50/EC50): average cytotoxicity against HEK293 and HepG2 / G. lamblia WB activity
Protocol: (§2) Compounds were screened for antiparasitic activity using an ATP-bioluminescence based assay for cell growth and survival, [24]. […] Viable cell numbers were determined in triplicate using the CellTiter-Glo Luminescent Cell Viability Assay.

[3] = test system: C. difficile 630 (ATCC BAA-1382); assay: Broth microdilution MIC assay, C. difficile 630; assay type: cell-based, Clostridium difficile; settings: Clostridioides difficile, ATCCBAA1382
Summary of the method: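 Compounds two-fold serially diluted against overnight anaerobic BHIS cultures of the strain, following CLSI methods modified in broth and inoculum for C. difficile. Plates incubated 24 h at 37 °C; MIC is the lowest concentration without visible growth, median reported with range.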

T. vaginalis F1623 = assay: ATP-bioluminescence growth/survival EC50 assay, T. vaginalis; assay type: cell-based, Trichomonas vaginalis; settings: Trichomonas vaginalis
Protocol: as §2

[4] = cited from earlier work
[5] = test system: C. difficile NAP1/027 (ATCC BAA-1803); assay: Broth microdilution MIC assay, C. difficile NAP1/027; assay type: cell-based, Clostridium difficile; settings: Clostridioides difficile, ATCCBAA1803; strain NAP1/027
Summary of the method: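 Strains grown anaerobically in BHIS at 37 °C overnight; compounds two-fold serially diluted (64 to 0.03 μg/mL) in pre-reduced medium under anaerobic atmosphere (5% H2, 10% CO2, 85% N2). Plates incubated 24 h at 37 °C; MIC taken as lowest concentration without visible growth, median of replicates reported.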

[6] = test system: G. lamblia WB trophozoites; assay: Light microscopy of G. lamblia WB growth and survival; assay type: cell-based, Giardia lamblia; settings: for Parasite cell growth by microscopy: 3 × EC50 (metronidazole 18 μM, 12a 1.5 μM), 48 h, relative to vehicle control; for Morphology of treated G. lamblia: 3 × EC50, 48 h, phase contrast
Protocol: The effect of compounds on G. lamblia WB growth and survival was examined by light microscopy. Briefly, stock compounds were diluted in DMSO (100%) to give 400 × final concentration of compound. […]. Assay plates were incubated for 48 h at 37 °C in the GasPak™ EZ Anaerobe Gas Generating Pouch Systems (VWR, West Chester, PA) to maintain anaerobic conditions throughout the incubation period. The assays were performed in triplicate (3 wells/treatment). […]

G. lamblia 713M3 (MtzR) = assay: ATP-bioluminescence growth/survival EC50 assay, G. lamblia 713M3; assay type: cell-based, Giardia lamblia; settings: Giardia duodenalis
Protocol: as §2

[7] = Metabolic stability in liver microsomes; assay type: in vitro ADME, human
Protocol: Metabolic stability studies were performed with human liver microsomes (HMMC-PL, Lot# PL050B-B, Thermo Fisher Scientific USA) with test compound (5 μM) degradation monitored by LC/MS/MS analysis. Stock solutions (2.5 mM) of the test compounds were prepared in DMSO. […] The reaction was initiated by addition of NADPH solution (cofactor) in potassium phosphate buffer (final concentration 1 mM). Aliquots (180 μL) from the reaction mixture were withdrawn (t = 0, 10, 30, 60 and 120 min) and quenched by adding ice-cold stop solution (540 μL) comprising 0.5 μM carbutamide internal standard in acetonitrile: methanol: formic acid (1: 1: 0.001). Reaction samples were incubated at 4 °C for 30 min, centrifuged at 14,000 × g for 8 min and the clear supernatant was transferred to a vial for LC/MS/MS analysis. The percentage of compound metabolised at different times was calculated as a percentage of the levels at the start of incubation (t = 0 min sample). Matrix blank was also prepared as a control. […] LC/MS/MS parameters are detailed in the supplementary information (Supplementary Table 1).

giardiasis = settings: cited from earlier work
Giardia = test system: Giardia; set-up: method as in PMID 23403423; settings: cited from earlier work
E. histolytica HM1:IMSS = assay: ATP-bioluminescence growth/survival EC50 assay, E. histolytica; assay type: cell-based, Entamoeba histolytica; settings: Entamoeba histolytica
Protocol: as §2

[8] = Plasma protein binding by ultrafiltration; assay type: in vitro ADME; settings: human
Protocol: Plasma Protein Binding (PPB) was performed using an Ultrafiltration method, [28]. […] Samples were incubated at […] for 30 min, then centrifuged at 14,000 × g for 8 min, with the clear supernatant transferred to a vial for LC/MS/MS analysis. […] The fraction of unbound compound was calculated by determining the concentration of the filtered sample and the concentration of unfiltered sample. […] LC/MS/MS parameters are detailed in the supplementary information (Supplementary Table 1).

T. vaginalis = test system: T. vaginalis; set-up: method as in earlier work; settings: cited from earlier work
H. meleagridis = test system: H. meleagridis; set-up: method as in earlier work; settings: turkey; cited from earlier work
[9] = read-out: EC50 G. lamblia WB, MtzS strain WB, minimum n = 3
[10] = read-out: pEC50 ± SE G. lamblia WB, MtzS strain WB (converted)
[11] = strain 630, MtzS, median of n = 4, read-out: MIC C. difficile 630
[12] = read-out: EC50 G. lamblia 713M3, MtzR strain 713M3, minimum n = 3
[13] = read-out: pEC50 ± SE G. lamblia 713M3, MtzR strain 713M3 (converted)
[14] = read-out: EC50 T. vaginalis F1623, MtzS, minimum n = 3
[15] = read-out: pEC50 ± SE T. vaginalis F1623, MtzS (converted)
[16] = read-out: EC50 E. histolytica HM1:IMSS
[17] = read-out: pEC50 ± SE E. histolytica HM1:IMSS (converted)
[18] = 5 μM, human liver microsomes 1 mg/mL, NADPH

Structure (SMILES)	CC50 at 24 h ([1]; HepG2 cells)	CC50 at 24 h ([2]; HEK293 cells)	EC50 (G. lamblia WB (MtzS); [9])	EC50 (G. lamblia WB (MtzS); [10])	MIC [3, 11]	MIC [5]	EC50 (G. lamblia 713M3 (MtzR); [12])	EC50 (G. lamblia 713M3 (MtzR); [13])	S.I (CC50/EC50) (G. lamblia WB (MtzS))	EC50 (T. vaginalis F1623; [14])	EC50 (T. vaginalis F1623; [15])	EC50 (E. histolytica HM1:IMSS; [16])	EC50 (E. histolytica HM1:IMSS; [17])	also measured
Cc1ncc([N+](=O)[O-])n1CCO [Compound 1, Metronidazole, reference compound]	> 100 µM	> 100 µM	6.1 µM	6.17 µM	0.5 µg/mL (≈ 2.92 µM)	0.5 µg/mL (≈ 2.92 µM)	18 µM	18.2 µM						EC50 (G. lamblia WB (MtzS); read-out: EC50 against G. lamblia strains, G. lamblia strains including metronidazole-resistant strains, stated together): 6.1 to 18 µM; MIC ([3]; 630 and NAP1/027 strains together or strain not given, read-out: MIC C. difficile): 0.5 µg/mL (≈ 2.92 µM); EC50 (T. vaginalis F1623; MtzS, minimum n = 3, read-out: EC50 T. vaginalis F1623): 0.8 µM; EC50 (T. vaginalis F1623; MtzS, read-out: pEC50 ± SE T. vaginalis F1623 (converted)): 0.794 µM; Plasma protein binding [4]: mostly unbound; Parasite cell growth by microscopy [6]: inhibited; Morphology of treated G. lamblia [6]: remained similar to the vehicle control; Microsome stability (% remaining at 2 h) ([7]; human, microsomes): 100 % remaining; Treatment failure in giardiasis cases (giardiasis): up to 20%; Effect on Giardia cells in prior study (Giardia): slowed the rate of oscillation of the Giardia flagella; EC50 (E. histolytica HM1:IMSS; MtzS, minimum n = 3, read-out: EC50 E. histolytica HM1:IMSS): 5 µM; EC50 (E. histolytica HM1:IMSS; MtzS, read-out: pEC50 ± SE E. histolytica HM1:IMSS (converted)): 5.01 µM; fraction unbound at 30 min, 5 μM ([8]; plasma, Plasma protein binding (% bound)): > 0.95
CCS(=O)(=O)CCn1c([N+](=O)[O-])cnc1C [Compound 2, tinidazole]														Plasma protein binding [4]: mostly unbound
CN(C)C(=O)c1ncc([N+](=O)[O-])n1C [Compound 8g, N,N,1-trimethyl-5-nitro-1H-imidazole-2-carboxamide]	> 100 µM	> 100 µM	2.4 µM	2.4 µM	32 µg/mL (≈ 161 µM)	64 µg/mL (≈ 323 µM)	> 20 µM	> 20 µM	>42	1.3 µM	1.29 µM	14 µM	14.1 µM	Activity in in vivo mouse model of T. vaginalis infection (T. vaginalis): activity; Activity in in vivo model of H. meleagridis infection (H. meleagridis): activity
Cn1c([N+](=O)[O-])cnc1C(=O)N1CCOCC1 [Compound 8h, (1-methyl-5-nitro-1H-imidazol-2-yl)(morpholino)methanone]	> 100 µM	> 100 µM	1.6 µM	1.58 µM	32 µg/mL (≈ 133 µM)	32 µg/mL (≈ 133 µM)	11 µM	11.2 µM	>63	0.6 µM	0.575 µM	14 µM	14.1 µM	Activity in in vivo mouse model of T. vaginalis infection (T. vaginalis): activity; Microsome stability (% remaining at 2 h) [7, 18]: 97 % remaining; Activity in in vivo model of H. meleagridis infection (H. meleagridis): activity; fraction unbound at 0.5 h, 5 µM ([8]; pooled human plasma (100%), 5 μM, 100% human plasma, 37 °C, 30 min, ultrafiltration, read-out: Plasma protein binding (% bound) (converted)): 0.91
O=C(NCc1ccc(F)cc1)c1ncc([N+](=O)[O-])[nH]1 [Compound 12a, N-(4-fluorobenzyl)-5-nitro-1H-imidazole-2-carboxamide]			0.5 µM	0.525 µM	4 µg/mL (≈ 15.1 µM)	4 µg/mL (≈ 15.1 µM)	2.4 µM	2.34 µM		2.3 µM	2.34 µM	3.6 µM	3.63 µM	CC50 at 24 h [1]: > 100 µM; CC50 at 24 h [2]: > 100 µM; Parasite cell growth by microscopy [6]: inhibited; Morphology of treated G. lamblia [6]: altered; Microsome stability (% remaining at 2 h) [7, 18]: 94 % remaining
CCOC(=O)c1nc([N+](=O)[O-])cn1Cc1ccc(OC(F)(F)F)cc1 [Compound 14c, Ethyl 4-nitro-1-(4-(trifluoromethoxy)benzyl)-1H-imidazole-2-carboxylate]			6 µM	6.03 µM	> 64 µg/mL	> 64 µg/mL			>17			51 µM	51.3 µM	CC50 at 24 h [1]: > 100 µM; CC50 at 24 h [2]: > 100 µM; melting point: 112 °C
CC(=O)OC[C@H]1O[C@@H]([S-])[C@H](OC(C)=O)[C@@H](OC(C)=O)[C@@H]1OC(C)=O.CCP(CC)CC.[Au+] [auranofin]														Effect on Giardia cells in prior study (Giardia): caused cell blebbing
O=C(Nc1ncc([N+](=O)[O-])s1)c1ccccc1O [tizoxanide]														Plasma protein binding ([4]; active metabolite of nitazoxanide): highly plasma protein bound

Reference: article PMC4920673, “Nitroimidazole carboxamides as antiparasitic agents targeting Giardia lamblia, Entamoeba histolytica and Trichomonas vaginalis” (European Journal of Medicinal Chemistry, 2016)
